Test results as given in ChEMBL document CHEMBL1134704, “Design, synthesis, and SAR of amino acid derivatives as factor Xa inhibitors” (Bioorg Med Chem Lett, 2001).
pIC50: −log10 of the molar value.

Tests used:
Prothrombin = Prothrombin (Homo sapiens, UniProt P00734); experiment: In vitro inhibition of human thrombin.
Serine protease 1 = Serine protease 1 (Homo sapiens, UniProt P07477); experiment: In vitro inhibition of human trypsin.
Coagulation factor X [1] = target: T1, Coagulation factor X (Homo sapiens, UniProt P00742); experiment: In vitro inhibition of human coagulation factor Xa.
T1 sequence (P00742 41-179 limits assumed): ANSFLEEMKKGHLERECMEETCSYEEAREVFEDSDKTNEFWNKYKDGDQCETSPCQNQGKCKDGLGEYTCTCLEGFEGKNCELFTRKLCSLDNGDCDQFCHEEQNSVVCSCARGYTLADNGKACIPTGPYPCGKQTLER
T1 sequence (P00742 235-488 limits assumed): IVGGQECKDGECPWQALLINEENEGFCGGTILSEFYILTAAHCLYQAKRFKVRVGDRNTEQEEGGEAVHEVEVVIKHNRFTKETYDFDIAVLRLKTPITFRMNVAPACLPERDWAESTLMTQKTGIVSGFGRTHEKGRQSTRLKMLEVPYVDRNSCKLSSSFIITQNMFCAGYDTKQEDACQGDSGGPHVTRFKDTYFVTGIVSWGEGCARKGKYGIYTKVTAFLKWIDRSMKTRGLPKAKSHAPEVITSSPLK

[2] = target: Vitamin K-dependent protein C (Homo sapiens, UniProt P04070); experiment: Inhibitory activity against activated protein C (APC)
Vitamin K-dependent protein C, sequence (P04070 43-197 limits assumed): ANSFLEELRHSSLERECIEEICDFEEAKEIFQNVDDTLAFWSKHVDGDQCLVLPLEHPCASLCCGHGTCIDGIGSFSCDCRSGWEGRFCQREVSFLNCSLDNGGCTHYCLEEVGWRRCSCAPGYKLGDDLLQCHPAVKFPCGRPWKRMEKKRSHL
Vitamin K-dependent protein C, sequence (P04070 212-461 limits assumed): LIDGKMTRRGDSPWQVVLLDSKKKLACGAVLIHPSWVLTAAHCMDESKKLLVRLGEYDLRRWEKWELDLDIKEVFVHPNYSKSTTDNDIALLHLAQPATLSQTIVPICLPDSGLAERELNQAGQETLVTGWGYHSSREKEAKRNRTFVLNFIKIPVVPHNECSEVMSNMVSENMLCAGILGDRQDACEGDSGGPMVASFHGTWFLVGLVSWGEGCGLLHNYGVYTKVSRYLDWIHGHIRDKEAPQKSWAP

[3] = target: Tissue-type plasminogen activator (Homo sapiens, UniProt P00750); experiment: Inhibitory activity against Tissue plasminogen activator
Tissue-type plasminogen activator, sequence (P00750 whole entry): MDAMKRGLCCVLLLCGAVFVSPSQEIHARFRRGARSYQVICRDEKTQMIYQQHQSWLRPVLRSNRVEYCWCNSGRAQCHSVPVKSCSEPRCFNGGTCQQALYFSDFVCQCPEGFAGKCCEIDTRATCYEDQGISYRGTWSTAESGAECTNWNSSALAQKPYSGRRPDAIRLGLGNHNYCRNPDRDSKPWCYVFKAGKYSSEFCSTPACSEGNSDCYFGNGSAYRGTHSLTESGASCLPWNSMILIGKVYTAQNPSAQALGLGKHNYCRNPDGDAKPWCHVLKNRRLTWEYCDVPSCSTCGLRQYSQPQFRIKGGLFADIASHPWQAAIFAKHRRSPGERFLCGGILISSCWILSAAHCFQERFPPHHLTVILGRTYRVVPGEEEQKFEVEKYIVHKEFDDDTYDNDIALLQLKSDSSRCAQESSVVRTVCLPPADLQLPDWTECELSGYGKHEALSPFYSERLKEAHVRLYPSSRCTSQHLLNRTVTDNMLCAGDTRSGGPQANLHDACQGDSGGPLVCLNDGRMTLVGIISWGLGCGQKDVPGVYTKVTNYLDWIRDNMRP

Plasminogen = Plasminogen (Homo sapiens, UniProt P00747); experiment: Inhibitory activity against plasmin
Plasminogen, sequence (P00747 97-580 limits assumed): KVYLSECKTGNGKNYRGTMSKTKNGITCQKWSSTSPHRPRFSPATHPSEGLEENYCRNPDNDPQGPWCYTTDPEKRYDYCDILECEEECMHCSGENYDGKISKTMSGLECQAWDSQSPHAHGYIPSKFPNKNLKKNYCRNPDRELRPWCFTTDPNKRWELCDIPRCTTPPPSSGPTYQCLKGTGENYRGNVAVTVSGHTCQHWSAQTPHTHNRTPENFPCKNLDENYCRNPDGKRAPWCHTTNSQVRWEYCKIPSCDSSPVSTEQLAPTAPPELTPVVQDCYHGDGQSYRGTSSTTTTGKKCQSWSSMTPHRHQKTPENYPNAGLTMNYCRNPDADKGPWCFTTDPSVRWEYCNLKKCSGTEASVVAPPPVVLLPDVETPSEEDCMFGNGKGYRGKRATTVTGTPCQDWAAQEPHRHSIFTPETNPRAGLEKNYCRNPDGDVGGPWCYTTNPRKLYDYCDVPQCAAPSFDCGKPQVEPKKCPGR
Plasminogen, sequence (P00747 581-810 limits assumed): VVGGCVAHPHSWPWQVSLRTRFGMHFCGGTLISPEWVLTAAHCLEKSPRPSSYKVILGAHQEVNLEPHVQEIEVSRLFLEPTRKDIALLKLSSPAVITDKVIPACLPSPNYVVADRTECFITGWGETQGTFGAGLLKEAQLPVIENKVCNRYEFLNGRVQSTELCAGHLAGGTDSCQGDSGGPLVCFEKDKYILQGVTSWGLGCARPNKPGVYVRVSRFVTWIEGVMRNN

[4] = Oral bioavailability in rat; format: ADME, organism-based; conditions: in vivo
Coagulation factor X [5] = target: T1, Coagulation factor X; experiment: Inhibitory activity against Coagulation factor X was determined

Serine protease 1, sequence (P07477 whole entry): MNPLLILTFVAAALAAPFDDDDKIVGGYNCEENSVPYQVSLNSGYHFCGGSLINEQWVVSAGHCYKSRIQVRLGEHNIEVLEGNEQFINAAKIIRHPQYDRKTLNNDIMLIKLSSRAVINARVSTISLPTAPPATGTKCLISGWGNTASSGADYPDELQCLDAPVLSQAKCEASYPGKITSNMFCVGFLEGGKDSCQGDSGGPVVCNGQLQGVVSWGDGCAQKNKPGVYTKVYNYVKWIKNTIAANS

Row | Compound | pIC50 (Prothrombin) | pIC50 (Serine protease 1) | pIC50 (Coagulation factor X [1]) | pIC50 [2] | pIC50 [3] | pIC50 (Plasminogen) | bioavailability [4] [%] | pIC50 (Coagulation factor X [5])
1 | N=C(N)c1cccc(C(=O)N[C@@H](CCC(=O)OC2CCCCC2)C(=O)Nc2ccc(-c3ccccc3S(N)(=O)=O)cc2)c1 | < 5.00 | < 5.00 | 6.07 | – | – | – | – | –
2 | N=C(N)c1cccc(C(=O)N2CCC[C@H]2C(=O)Nc2ccc(-c3ccccc3S(N)(=O)=O)cc2)c1 | < 5.00 | < 5.00 | < 5.00 | – | – | – | – | –
3 | N=C(N)c1cccc(C(=O)N[C@@H](Cc2ccccc2)C(=O)Nc2ccc(-c3ccccc3S(N)(=O)=O)cc2)c1 | < 5.00 | < 5.00 | 6.12 | – | – | – | – | –
4 | CC(C)[C@H](NC(=O)c1cccc(C(=N)N)c1)C(=O)Nc1ccc(-c2ccccc2S(N)(=O)=O)cc1 | < 5.00 | < 5.00 | 6.17 | – | – | – | – | –
5 | N=C(N)c1cccc(C(=O)N2Cc3ccc(O)cc3C[C@@H]2C(=O)Nc2ccc(-c3ccccc3S(N)(=O)=O)cc2)c1 | < 5.00 | < 5.00 | 5.75 | – | – | – | – | –
6 | Nc1noc2ccc(C(=O)N[C@@H](C(=O)Nc3ccc(-c4ccccc4S(N)(=O)=O)cc3)c3ccccc3)cc12 | < 5.00 | – | – | – | – | – | – | < 5.00
7 | N=C(N)c1cccc(C(=O)N[C@H](C(=O)Nc2ccc(-c3ccccc3S(N)(=O)=O)cc2)C2CCCCC2)c1 | < 5.00 | < 5.10 | 6.20 | – | – | – | – | –
8 | Nc1[nH]nc2ccc(C(=O)N[C@H](C(=O)Nc3ccc(-c4ccccc4S(N)(=O)=O)cc3)c3ccccc3)cc12 | 5.00 | – | 5.00 | – | – | – | – | –
9 | N=C(N)c1cccc(C(=O)N[C@H](Cc2ccccc2)C(=O)Nc2ccc(-c3ccccc3S(N)(=O)=O)cc2)c1 | < 5.00 | < 5.00 | 7.50 | – | – | – | – | –
10 | N=C(N)c1cccc(C(=O)N2Cc3ccccc3C[C@@H]2C(=O)Nc2ccc(-c3ccccc3S(N)(=O)=O)cc2)c1 | < 5.00 | 5.36 | 7.73 | – | – | – | – | –
11 | CC(C)[C@@H](NC(=O)c1cccc(C(=N)N)c1)C(=O)Nc1ccc(-c2ccccc2S(N)(=O)=O)cc1 | < 5.00 | < 5.00 | 7.46 | – | – | – | – | –
12 | N=C(N)c1cccc(C(=O)N[C@H](C(=O)Nc2ccc(-c3ccccc3S(N)(=O)=O)cc2)c2ccccc2)c1 | < 5.00 | 5.29 | 6.47 | – | – | – | – | –
13 | N=C(N)c1cccc(C(=O)N[C@@H](CCC(=O)O)C(=O)Nc2ccc(-c3ccccc3S(N)(=O)=O)cc2)c1 | < 5.00 | < 5.00 | 5.84 | – | – | – | – | –

Results, then the compound that gave them:

Row | pIC50 (Prothrombin) | pIC50 (Serine protease 1) | pIC50 (Coagulation factor X [1]) | pIC50 [2] | pIC50 [3] | pIC50 (Plasminogen) | bioavailability [4] [%] | pIC50 (Coagulation factor X [5]) | Compound
14 | < 5.00 | 5.67 | 8.52 | 4.14 | 3.74 | 4.11 | < 5 | – | N=C(N)c1cccc(C(=O)N2Cc3ccccc3C[C@H]2C(=O)Nc2ccc(-c3ccccc3S(N)(=O)=O)cc2)c1
15 | < 5.00 | 5.75 | 7.46 | 5.18 | < 3.74 | 4.74 | < 5 | – | N=C(N)c1cccc(C(=O)N[C@@H](C(=O)Nc2ccc(-c3ccccc3S(N)(=O)=O)cc2)c2ccccc2)c1
16 | < 5.00 | – | – | – | – | – | – | 5.56 | Nc1nccc2ccc(C(=O)N3Cc4ccccc4C[C@H]3C(=O)Nc3ccc(-c4ccccc4S(N)(=O)=O)cc3)cc12
17 | < 5.00 | 6.05 | 7.01 | – | – | – | – | – | N=C(N)c1cccc(C(=O)N2Cc3ccc(O)cc3C[C@H]2C(=O)Nc2ccc(-c3ccccc3S(N)(=O)=O)cc2)c1
18 | < 5.00 | 5.25 | 6.19 | – | – | – | – | – | N=C(N)c1cccc(C(=O)N[C@@H](CCC(=O)OCc2ccccc2)C(=O)Nc2ccc(-c3ccccc3S(N)(=O)=O)cc2)c1
19 | < 5.00 | < 5.00 | 6.07 | – | – | – | – | – | N=C(N)c1cccc(C(=O)NCC(=O)Nc2ccc(-c3ccccc3S(N)(=O)=O)cc2)c1
20 | < 5.00 | – | 5.46 | – | – | – | – | – | Nc1[nH]nc2ccc(C(=O)N[C@@H](C(=O)Nc3ccc(-c4ccccc4S(N)(=O)=O)cc3)c3ccccc3)cc12
21 | < 5.00 | 5.32 | 7.26 | – | – | – | – | – | N=C(N)c1cccc(C(=O)N[C@@H](CC(=O)OC2CCCCC2)C(=O)Nc2ccc(-c3ccccc3S(N)(=O)=O)cc2)c1
